Assay results as given in patent US20250340565A1, “CD73 INHIBITOR COMPOUNDS” (AdoRx Therapeutics Limited, priority 2022, published 2025).

How the values were obtained:
[1] = target: human (h)CD73 (amino acids Trp27-Lys547) (Homo sapiens, UniProt P21589); assay: CD73 inhibition assay (Malachite Green phosphate detection); format: biochemical; conditions: 250 pM hCD73, 12.5 μM AMP, 20 min pre-incubation, absorbance 620 nm
Experimental: Compound inhibition of human (h)CD73 (amino acids Trp27-Lys547, R&D Systems 5795-EN-500) enzymatic activity was tested via the Malachite Green Phosphate Detection Kit (R&D DY996). Experiments were performed in 20 μL Tris buffer (25 mM Tris pH 7.5, 5 mM MgCl2, 0.002% Tween20), with 250 pM of hCD73. Test compounds of interest were prepared in a threefold serial dilution in DMSO and added to the assay to give the appropriate final concentration, with the assay DMSO concentration being 1%. Compounds were pre-incubated for 20 minutes with hCD73 in a 384 well clear plate (Greiner 781101), followed by the addition of adenosine monophosphate (AMP) to 12.5 μM. The enzymatic reaction was carried out for 20 min at room temperature. 5 μL of Malachite kit reagent A was added to stop the reaction (contains 3M H2SO4) and after 10 min, 5 μL of Malachite kit reagent B was added (Malachite Green). After 30 min, absorbance at 620 nm was read on a BMG Pherastar FSX.
Data were normalised to measurements in the absence of competing compound (0% inhibition) and in the presence of 10 μM control compound (100% inhibition).

[2] = target: CD73 activity in U138-MG cells (Homo sapiens (Human), UniProt P21589); assay: U138-MG inhibition assay (inorganic phosphate from AMP, PiColorLock Gold); format: cell-based; conditions: 100 μM AMP, 30 min pre-incubation, 1 hour at 37° C.
CD73 activity in U138-MG cells, sequence (P21589 27-574): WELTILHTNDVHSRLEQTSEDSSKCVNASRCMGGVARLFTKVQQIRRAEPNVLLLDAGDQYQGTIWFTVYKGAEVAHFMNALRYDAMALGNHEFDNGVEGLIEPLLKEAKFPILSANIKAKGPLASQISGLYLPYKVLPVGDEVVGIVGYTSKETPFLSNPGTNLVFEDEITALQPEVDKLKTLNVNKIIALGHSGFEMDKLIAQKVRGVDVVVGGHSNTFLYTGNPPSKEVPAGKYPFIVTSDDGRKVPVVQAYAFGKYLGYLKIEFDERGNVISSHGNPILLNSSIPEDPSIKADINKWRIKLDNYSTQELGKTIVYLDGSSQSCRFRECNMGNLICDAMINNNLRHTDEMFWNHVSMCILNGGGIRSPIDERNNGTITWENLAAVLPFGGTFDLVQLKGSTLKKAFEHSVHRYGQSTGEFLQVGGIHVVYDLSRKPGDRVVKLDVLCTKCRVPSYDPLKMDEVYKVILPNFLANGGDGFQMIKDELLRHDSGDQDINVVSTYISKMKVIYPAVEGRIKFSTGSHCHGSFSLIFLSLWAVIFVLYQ
Experimental: U138-MG cells from ATCC are cultured in DMEM (Gibco 31966) with 10% FBS. Cells are seeded into 96-well culture plates (5,000 cell/well) in 100 μL of media for 24 hr. Cells are washed twice with 200 μL of assay buffer (20 mM HEPES, pH 7.4; 137 mM NaCl; 5.4 mM KCl; 1.3 mM CaCl2; 4.2 mM NaHCO3; 1 mg/mL glucose) to remove residual inorganic phosphate. CD73 inhibitor is added to each well in 100 μl volume and preincubated for 30 mins at 37° C. An equal volume of AMP substrate (Sigma A1572) is added to each well at a final concentration of 100 μM and incubated at 37° C. for 1 hour. Control wells containing cells but lacking added AMP, define the assay signal equivalent to 100% inhibition of CD73 activity. Supernatant is removed for measurement of inorganic phosphate using the PiColorLock Gold kit (Abcam, ab 270004).
The IC50 values of test compounds are determined as the inflection point of the sigmoidal concentration response curve.

[3] = target: CD73 in whole blood (Homo sapiens (Human), UniProt P21589); assay: Whole blood AMP Glo assay; format: cell-based; conditions: whole blood of healthy volunteers, 10 μM AMP, 30 min pre-incubation, 15 min at 37° C., levamisole 1.5 mM
CD73 in whole blood, sequence (P21589 27-574): as above
Experimental: Blood is drawn from healthy volunteers by venepuncture and anti-coagulated with Lithium Heparin (10 IU/mi). 150 μl of blood is added to U-bottom polypropylene 96-well assay plates pre-filled with 20 μl of compound dilutions prepared in RPMI also containing the Tissue Non-specific Alkaline Phosphatase inhibitor Levamisole (final assay concentration 1.5 mM). Control wells to define uninhibited CD73 contain DMSO in place of compound. Control wells to define complete stabilization of AMP attributable to CD73 contain LY3475070 (CAS: 2375815-63-5) at 30 μM final assay concentration.
Compounds are pre-incubated with whole blood at 37° C. for 30 minutes. Following this, AMP is added in a 30 μl volume for a final assay concentration of 10 μM, mixed, and the plates are incubated for 15 minutes at 37° C. Final DMSO concentration/well is 0.6% and final volume/well is 200 μL. After incubating with AMP, the plates are placed on ice and then centrifuged at 2000 g for 10 minutes at 4° C. Plasma is removed and then diluted 1:10 with pre-chilled HBSS (Ca2+& Mg2+free) and kept on ice.
The stabilized AMP concentration in diluted plasma is measured using AMP-Glo kit (Promega), in parallel with a standard curve of known AMP concentrations, with a final volume of 40 μl in white flat bottom half-well 96-well plates (Corning). Signal is measured by Luminescence. The IC50 values of test compounds are determined as the inflection point of the sigmoidal concentration response curve.

IC50 [1] [nM]	IC50 [2] [nM]	IC50 [3] [nM]	Compound
428	1010		CC1(C)CN(c2ncnc3sc(-c4c[nH]c(=O)[nH]c4=O)cc23)C1 [Example 1.2, 5-[4-(3,3-Dimethylazetidin-1-yl)thieno[2,3-d]pyrimidin-6-yl]-1H-pyrimidine-2,4-dione]
197	3140		O=c1[nH]cc(-c2cc3c(N4CCC(OCc5ccccc5)C4)ncnc3s2)c(=O)[nH]1 (centres unmarked) [Example 4.2, 5-[4-(3-Benzyloxypyrrolidin-1-yl)thieno[2,3-d]pyrimidin-6-yl]-1H-pyrimidine-2,4-dione]
94	66		CC1(C)CN(c2ncnc3nc(-c4c[nH]c(=O)[nH]c4=O)sc23)CC1(F)F [Example 6.1, 5-[7-(3,3-difluoro-4,4-dimethyl-pyrrolidin-1-yl)thiazolo[4,5-d]pyrimidin-2-yl]-1H-pyrimidine-2,4-dione]
283			O=c1[nH]cc(-c2cc3c(N4CCC(OCCN5CCCCC5)C4)nccc3s2)c(=O)[nH]1 (centres unmarked) [Example 9, 5-[4-[3-[2-(1-Piperidyl)ethoxy]pyrrolidin-1-yl]thieno[3,2-c]pyridin-2-yl]-1H-pyrimidine-2,4-dione]
	2500		O=c1[nH]cc(-n2cc3c(N4C[C@@H]5COC[C@H]5C4)ncnc3n2)c(=O)[nH]1 [Example 13.10, 5-[4-[(3aR,6aR)-1,3,3a,4,6,6a-Hexahydrofuro[3,4-c]pyrrol-5-yl]pyrazolo[3,4-d]pyrimidin-2-yl]-5H-pyrimidine-2,4-dione]
256	1320		CC1(C)CN(c2ccnc3sc(-c4c[nH]c(=O)[nH]c4=O)cc23)CC1(F)F [Example 14.1, 5-[4-(3,3-Difluoro-4,4-dimethyl-pyrrolidin-1-yl)thieno[2,3-b]pyridin-2-yl]-1H-pyrimidine-2,4-dione]
9730			O=c1[nH]cc(-c2cc3c(NCc4ccc(Cl)cc4)ncnc3o2)c(=O)[nH]1 [Example 19.2, 5-[4-[(4-Chlorophenyl)methylamino]furo[2,3-d]pyrimidin-6-yl]-1H-pyrimidine-2,4-dione]
834	744		CC(C)NC(=O)OCC(F)(F)CNc1ncnc2oc(-c3c[nH]c(=O)[nH]c3=O)cc12 [Example 20, [3-[[6-(2,4-Dioxo-1H-pyrimidin-5-yl)furo[2,3-d]pyrimidin-4-yl]amino]-2,2-difluoro-propyl]N-isopropylcarbamate]
170	54.9		CC(C)NC(=O)OC1CN(c2ncnc3oc(-c4c[nH]c(=O)[nH]c4=O)cc23)CC1(F)F (centres unmarked) [Example 22.2, [1-[6-(2,4-Dioxo-1H-pyrimidin-5-yl)furo[2,3-d]pyrimidin-4-yl]-4,4-difluoro-pyrrolidin-3-yl]N-isopropylcarbamate]
83.7	58.8		O=c1[nH]cc(-c2cc3c(N4CC(F)(F)C5(CC5)C4)nccn3n2)c(=O)[nH]1 [Example 25.2, 5-[4-(7,7-Difluoro-5-azaspiro[2.4]heptan-5-yl)pyrazolo[1,5-a]pyrazin-2-yl]-1H-pyrimidine-2,4-dione]
54.7	91		COC1CN(c2nccn3nc(-c4c[nH]c(=O)[nH]c4=O)cc23)CC1(F)F (centres unmarked) [Example 25.3, 5-[4-(3,3-difluoro-4-methoxy-pyrrolidin-1-yl)pyrazolo[1,5-a]pyrazin-2-yl]-1H-pyrimidine-2,4-dione]
141	115		O=c1[nH]cc(-c2cc3c(N4CCC5(COC5)C4)nccn3n2)c(=O)[nH]1 [Example 25.4, 5-[4-(2-oxa-7-azaspiro[3.4]octan-7-yl)pyrazolo[1,5-a]pyrazin-2-yl]-1H-pyrimidine-2,4-dione]
71.9	170		O=c1[nH]cc(-c2cc3c(N4CC(O)C(F)(F)C4)nccn3n2)c(=O)[nH]1 (centres unmarked) [Example 25.5, 5-[4-(3,3-difluoro-4-hydroxy-pyrrolidin-1-yl)pyrazolo[1,5-a]pyrazin-2-yl]-1H-pyrimidine-2,4-dione]
99	46		CN1CCOC(COC2CN(c3nccn4nc(-c5c[nH]c(=O)[nH]c5=O)cc34)CC2(F)F)C1 (centres unmarked) [Example 25.6, 5-[4-[3,3-difluoro-4-[(4-methylmorpholin-2-yl)methoxy]pyrrolidin-1-yl]pyrazolo[1,5-a]pyrazin-2-yl]-1H-pyrimidine-2,4-dione]
132	65		O=c1[nH]cc(-c2cc3c(N4CC(OCCN5CCOCC5)C(F)(F)C4)nccn3n2)c(=O)[nH]1 (centres unmarked) [Example 25.7, 5-[4-[3,3-difluoro-4-(2-morpholinoethoxy)pyrrolidin-1-yl]pyrazolo[1,5-a]pyrazin-2-yl]-1H-pyrimidine-2,4-dione]
	5	56	CC1(C)CN(c2ncc(F)n3nc(-c4c[nH]c(=O)[nH]c4=O)cc23)CC1(F)F [Example 25.10, 5-[4-(3,3-difluoro-4,4-dimethyl-pyrrolidin-1-yl)-7-fluoro-pyrazolo[1,5-a]pyrazin-2-yl]-1H-pyrimidine-2,4-dione]
	23	200	Cc1cnc(N2CC(C)(C)C(F)(F)C2)c2cc(-c3c[nH]c(=O)[nH]c3=O)nn12 [Example 25.11, 5-[4-(3,3-difluoro-4,4-dimethyl-pyrrolidin-1-yl)-7-methyl-pyrazolo[1,5-a]pyrazin-2-yl]-1H-pyrimidine-2,4-dione]
	38		CC1(C)CN(c2ncc(I)n3nc(-c4c[nH]c(=O)[nH]c4=O)cc23)CC1(F)F [Example 25.12, 5-[4-(3,3-difluoro-4,4-dimethyl-pyrrolidin-1-yl)-7-iodo-pyrazolo[1,5-a]pyrazin-2-yl]-1H-pyrimidine-2,4-dione]
	12	5	O=c1[nH]cc(-c2cc3c(N4CC(O)C(F)(F)C4)ncc(Cl)n3n2)c(=O)[nH]1 (centres unmarked) [Example 25.13, 5-[7-Chloro-4-(3,3-difluoro-4-hydroxy-pyrrolidin-1-yl)pyrazolo[1,5-a]pyrazin-2-yl]-1H-pyrimidine-2,4-dione]
	18		Cc1nc(N2CC(C)(C)C(F)(F)C2)c2cc(-c3c[nH]c(=O)[nH]c3=O)nn2c1Cl [Example 25.15, 5-[7-Chloro-4-(3,3-difluoro-4,4-dimethyl-pyrrolidin-1-yl)-6-methyl-pyrazolo[1,5-a]pyrazin-2-yl]-1H-pyrimidine-2,4-dione]
43.3	12		COC1CN(c2ncc(F)c3nn(-c4c[nH]c(=O)[nH]c4=O)cc23)CC1(F)F (centres unmarked) [Example 26.2, 5-[4-(3,3-difluoro-4-methoxy-pyrrolidin-1-yl)-7-fluoro-pyrazolo[4,3-c]pyridin-2-yl]-1H-pyrimidine-2,4-dione]
35.1	16		O=c1[nH]cc(-n2cc3c(N4CC(O)C(F)(F)C4)ncc(F)c3n2)c(=O)[nH]1 (centres unmarked) [Example 26.3, 5-[4-(3,3-difluoro-4-hydroxy-pyrrolidin-1-yl)-7-fluoro-pyrazolo[4,3-c]pyridin-2-yl]-1H-pyrimidine-2,4-dione]
59	11		CN1CCOC(COC2CN(c3ncc(F)c4nn(-c5c[nH]c(=O)[nH]c5=O)cc34)CC2(F)F)C1 (centres unmarked) [Example 26.6, 5-[4-[3,3-difluoro-4-[(4-methylmorpholin-2-yl)methoxy]pyrrolidin-1-yl]-7-fluoro-pyrazolo[4,3-c]pyridin-2-yl]-1H-pyrimidine-2,4-dione]
